This note sets out measurements from patent US20170269060A1, “Assays and Compounds to Treat Kidney Diseases” (Rush University Medical Center, priority 2014, published 2017).

The assay has as its system SD rats. Description: PAN-induced nephropathy in rats. The class given is in vivo, rat. The conditions noted are these: PAN 150 mg/kg i.v., pyrintegrin 10 mg/kg daily for 14 days. On the procedure:
The induction of nephropathy in male wild type SD rats (n=6 per group) by PAN injection was performed as described. (Reiser et al., J Clin Invest, 2004; Wei et al., Nature Medicine, 2008; Nakamura et al., Lab Invest, 1991.) Briefly, 5 week old male rats were intravenously injected with PAN (150 mg/kg, in water) and treatment with vehicle or pyrintegrin was started on the same day. Animals in the vehicle group were administered saline-based vehicle solution (3.3% DMSO and 5% Cremaphor EL) intraperitoneally daily for 14 days. Animals in the treatment group were treated with pyrintegrin (10 mg/kg, 3.3% DMSO and 5% Cremaphor EL) in the saline based solution daily for 14 days. Spot urine was collected from animals for measurement of albuminuria as mg albumin per mg creatinine. (Faul et al., Nat Med, 2008) Results are expressed as mean±SEM.
Low-dose LPS decreases β1 integrin activation in podocytes and causes podocyte damage and proteinuria in mice. (Yu et al., N Engl J Med, 2013) Here, we used this model to test whether pyrintegrin, by preserving active β1 integrin in podocytes, is able to suppress podocyte FP effacement and the development of proteinuria in live animals. […] Given that pyrintegrin protected podocytes from PAN-induced damage in vitro, we also tested the efficacy of pyrintegrin in a PAN injury model.

As to `O=S(=O)(NCC1CC1)c1ccc(Nc2nccc(N3CCCc4cc(O)ccc43)n2)cc1` [Pyrintegrin], the “albuminuria caused by PAN-induced nephropathy” value was “significantly reduced albuminuria”.
